Patent US11286268B1, “EIF4E-inhibiting compounds and methods” (EFFECTOR THERAPEUTICS, INC., priority 2019, dated 2022)

Molecular target: recombinant eIF4E (Homo sapiens (Human), UniProt P06730)
Test: Fluorescence polarization competition assay for eIF4E binding potency
Conditions: inhibition of eIF4E/EDA-m7GDP-ATTO-550 binding; calculated IC50 values, Table 4B; read-out: IC50
Outline: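 IC50 values reflect 50% displacement of 20 nM EDA-m7GDP-ATTO-550 from 75 nM eIF4E, measured by fluorescence polarization after 30 min at room temperature. Buffer: 20 mM Tris pH 7.5, 100 mM NaCl, 1 mM DTT, 0.02% Tween-20; 1% DMSO.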

Sequence of recombinant eIF4E (P06730 whole entry): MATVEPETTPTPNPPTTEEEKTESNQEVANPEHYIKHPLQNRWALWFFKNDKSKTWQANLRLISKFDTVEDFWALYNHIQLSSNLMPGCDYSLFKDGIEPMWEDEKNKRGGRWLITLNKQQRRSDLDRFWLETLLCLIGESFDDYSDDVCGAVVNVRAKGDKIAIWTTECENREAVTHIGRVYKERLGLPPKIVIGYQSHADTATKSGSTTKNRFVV

Row | Structure (SMILES) | IC50 [nM]
1 | Cc1cccc(S(=O)(=O)NC(=O)c2csc3c(-c4cc(Cl)ccc4C#CCn4c(C)nc5cnc(N(C)C6CCN(CC(C)(F)F)CC6)c(C#N)c5c4=O)ccnc23)n1 [compound 1678] | 28
2 | Cc1nc2cnc(N(C)C3CCN(CC(C)(F)F)CC3)c(C#N)c2c(=O)n1CC#Cc1ccc(Cl)cc1-c1ccnc2c(C(=O)NS(=O)(=O)c3ccc(C(F)(F)F)cn3)csc12 [compound 1679] | 29.3
3 | Cc1ccc(S(=O)(=O)NC(=O)c2csc3c(-c4cc(Cl)ccc4C#CCn4c(C)nc5cnc(N(C)C6CCN(CC(C)(F)F)CC6)c(C#N)c5c4=O)ccnc23)cn1 [compound 1680] | 23.3
4 | COc1cc(S(=O)(=O)NC(=O)c2csc3c(-c4cc(Cl)ccc4C#CCn4c(C)nc5cnc(N(C)C6CCN(CC(C)(F)F)CC6)c(C#N)c5c4=O)ccnc23)ccn1 [compound 1683] | 18.3
5 | Cc1nc2cnc(N(C)C3C[C@H]4C[C@@H]3CN4CC(C)(F)F)c(C#N)c2c(=O)n1CC#Cc1ccc(Cl)cc1-c1ccnc2c(C(=O)O)csc12 (stereo partly drawn) [compound 1689] | 22.2
6 | Cc1nc2cnc(N(C)[C@H]3[C@@H]4CC[C@H]3CN(CC(C)(F)F)C4)c(C#N)c2c(=O)n1CC#Cc1ccc(Cl)cc1-c1ccnc2c(C(=O)O)csc12 [compound 1690] | 27.4
7 | Cc1nc2cnc(N(C)C3[C@@H]4C[C@H]3CN(CC(C)(F)F)C4)c(C#N)c2c(=O)n1CC#Cc1ccc(Cl)cc1-c1ccnc2c(C(=O)O)csc12 (stereo partly drawn) [compound 1691] | 17.9
8 | CCN(c1ncc2nc(C)n(CC#Cc3ccc(Cl)cc3-c3ccnc4c(C(=O)NS(=O)(=O)c5ccncc5)csc34)c(=O)c2c1C#N)C1CCN(CC(F)(F)C(F)F)CC1 [compound 1708] | 16.2
9 | CCN(c1ncc2nc(C)n(CC#Cc3ccc(Cl)cc3-c3ccnc4c(C(=O)NS(=O)(=O)c5cccnc5)csc34)c(=O)c2c1C#N)C1CCN(CC(F)(F)C(F)F)CC1 [compound 1709] | 28.4
10 | Cc1nc2cnc(N(C)C3CCN(CCC(C)(F)F)CC3)c(C#N)c2c(=O)n1CC#Cc1ccc(Cl)cc1-c1ccnc2c(C(=O)NS(C)(=O)=O)csc12 [compound 1713] | 15.8
11 | Cc1nc2cnc(N(C)C3CCN([C@H]4C[C@@H]4C(F)(F)F)CC3)c(C#N)c2c(=O)n1CC#Cc1ccc(Cl)cc1-c1ccnc2c(C(=O)O)csc12 [compound 1724] | 4.07
12 | Cc1nc2cnc(N(C)C3CCN([C@@H]4C[C@H]4C(F)(F)F)CC3)c(C#N)c2c(=O)n1CC#Cc1ccc(Cl)cc1-c1ccnc2c(C(=O)O)csc12 [compound 1727] | 3.84
13 | CCN(c1ncc2nc(C)n(CC#Cc3ccc(Cl)cc3-c3ccnc4c(C(=O)NS(=O)(=O)CC(F)(F)F)csc34)c(=O)c2c1C#N)C1CCN(C2COC2)CC1 [compound 1734] | 19.4
14 | CCN(c1ncc2nc(C)n(CC#Cc3ccc(Cl)cc3-c3ccnc4c(C(=O)NS(=O)(=O)CC#N)csc34)c(=O)c2c1C#N)C1CCN(C2COC2)CC1 [compound 1735] | 33.6
15 | CCN(c1ncc2nc(C)n(CC#Cc3ccc(Cl)cc3-c3ccnc4c(C(=O)NS(=O)(=O)Cc5ccccn5)csc34)c(=O)c2c1C#N)C1CCN(C2COC2)CC1 [compound 1738] | 25.5
16 | CCN(c1ncc2nc(C)n(CC#Cc3ccc(Cl)cc3-c3ccnc4c(C(=O)NS(=O)(=O)C5CC(F)(F)C5)csc34)c(=O)c2c1C#N)C1CCN(C2COC2)CC1 [compound 1739] | 33.3
17 | CCN(c1ncc2nc(C)n(CC#Cc3ccc(Cl)cc3-c3ccnc4c(C(=O)NS(=O)(=O)C(C)(C)C)csc34)c(=O)c2c1C#N)C1CCN(C2COC2)CC1 [compound 1747] | 16.5
18 | CCN(c1ncc2nc(C)n(CC#Cc3ccc(Cl)cc3-c3ccnc4c(C(=O)NS(=O)(=O)C5CCC5)csc34)c(=O)c2c1C#N)C1CCN(C2COC2)CC1 [compound 1748] | 17.5
19 | CCN(c1ncc2nc(C)n(CC#Cc3ccc(Cl)cc3-c3ccnc4c(C(=O)NS(=O)(=O)C5CC5)csc34)c(=O)c2c1C#N)C1CCN(C2COC2)CC1 [compound 1749] | 16.4
20 | CCN(c1ncc2nc(C)n(CC#Cc3ccc(Cl)cc3-c3ccnc4c(C(=O)NS(=O)(=O)C5COC5)csc34)c(=O)c2c1C#N)C1CCN(C2COC2)CC1 [compound 1750] | 16.1
21 | Cc1nc2cnc(N(C)C3CCN([C@H]4C[C@H](OC(F)F)C4)CC3)c(C#N)c2c(=O)n1CC#Cc1ccc(Cl)cc1-c1ccnc2c(C(=O)NS(=O)(=O)C3COC3)csc12 [compound 1762] | 25
22 | Cc1nc2cnc(N(C)C3CCN([C@H]4C[C@H](OC(F)F)C4)CC3)c(C#N)c2c(=O)n1CC#Cc1ccc(Cl)cc1-c1ccnc2c(C(=O)NS(=O)(=O)c3ccccn3)csc12 [compound 1763] | 23.3
23 | Cc1nc2cnc(N(C)C3CCN([C@H]4C[C@H](OC(F)F)C4)CC3)c(C#N)c2c(=O)n1CC#Cc1ccc(Cl)cc1-c1ccnc2c(C(=O)NS(=O)(=O)c3ccncc3)csc12 [compound 1764] | 19
24 | CCN(c1ncc2nc(C)n(CC#Cc3ccc(Cl)cc3-c3ccnc4c(C(=O)NS(C)(=O)=O)csc34)c(=O)c2c1C#N)C1CCN([C@H]2C[C@H](OC(F)F)C2)CC1 [compound 1767] | 17.4
25 | CCN(c1ncc2nc(C)n(CC#Cc3ccc(Cl)cc3-c3ccnc4c(C(=O)NS(=O)(=O)C5COC5)csc34)c(=O)c2c1C#N)C1CCN([C@H]2C[C@H](OC(F)F)C2)CC1 [compound 1768] | 31.3
26 | CCN(c1ncc2nc(C)n(CC#Cc3ccc(Cl)cc3-c3ccnc4c(C(=O)NS(=O)(=O)c5ccncc5)csc34)c(=O)c2c1C#N)C1CCN([C@H]2C[C@H](OC(F)F)C2)CC1 [compound 1769] | 16.4
27 | CCN(c1ncc2nc(C)n(CC#Cc3ccc(Cl)cc3-c3ccnc4c(C(=O)NS(=O)(=O)c5cccnc5)csc34)c(=O)c2c1C#N)C1CCN([C@H]2C[C@H](OC(F)F)C2)CC1 [compound 1770] | 17.5
28 | CCN(c1ncc2nc(C)n(CC#Cc3ccc(Cl)cc3-c3ccnc4c(C(=O)NS(=O)(=O)c5ccccn5)csc34)c(=O)c2c1C#N)C1CCN([C@H]2C[C@H](OC(F)F)C2)CC1 [compound 1771] | 26.6

Results, then the compound that gave them:

Row | IC50 [nM] | Structure (SMILES)
29 | 8.27 | COc1ccc(S(=O)(=O)NC(=O)c2csc3c(-c4cc(Cl)ccc4C#CCn4c(C)nc5cnc(N(C)C6CCN(CC(C)(F)F)CC6)c(C#N)c5c4=O)ccnc23)cn1 [compound 1681]
30 | 15.1 | Cc1cc(S(=O)(=O)NC(=O)c2csc3c(-c4cc(Cl)ccc4C#CCn4c(C)nc5cnc(N(C)C6CCN(CC(C)(F)F)CC6)c(C#N)c5c4=O)ccnc23)ccn1 [compound 1682]
31 | 12.7 | Cc1nc2cnc(N(C)C3C[C@H]4C[C@@H]3CN4CC(C)(F)F)c(C#N)c2c(=O)n1CCOc1ccc(Cl)cc1-c1ccnc2c(C(=O)O)csc12 (stereo partly drawn) [compound 1688]
32 | 6 | Cc1nc2cnc(N(C)C3CCN(CC(F)(F)C(F)F)CC3)c(C#N)c2c(=O)n1CC#Cc1ccc(Cl)cc1-c1ccnc2c(C(=O)NS(C)(=O)=O)csc12 [compound 1703]
33 | 6.54 | Cc1nc2cnc(N(C)C3CCN(CC(F)(F)C(F)F)CC3)c(C#N)c2c(=O)n1CC#Cc1ccc(Cl)cc1-c1ccnc2c(C(=O)NS(=O)(=O)C3COC3)csc12 [compound 1704]
34 | 4.8 | Cc1nc2cnc(N(C)C3CCN(CC(F)(F)C(F)F)CC3)c(C#N)c2c(=O)n1CC#Cc1ccc(Cl)cc1-c1ccnc2c(C(=O)NS(=O)(=O)c3ccncc3)csc12 [compound 1705]
35 | 12.1 | Cc1nc2cnc(N(C)C3CCN(CC(F)(F)C(F)F)CC3)c(C#N)c2c(=O)n1CC#Cc1ccc(Cl)cc1-c1ccnc2c(C(=O)NS(=O)(=O)c3ccccn3)csc12 [compound 1706]
36 | 15.7 | Cc1nc2cnc(N(C)C3CCN(CC(F)(F)C(F)F)CC3)c(C#N)c2c(=O)n1CC#Cc1ccc(Cl)cc1-c1ccnc2c(C(=O)NS(=O)(=O)c3cccnc3)csc12 [compound 1707]
37 | 13.4 | Cc1nc2cnc(N(C)C3CCN(CC4(C(F)(F)F)CCO4)CC3)c(C#N)c2c(=O)n1CC#Cc1ccc(Cl)cc1-c1ccnc2c(C(=O)O)csc12 (stereo not drawn) [compound 1717]
38 | 8.11 | CCN(c1ncc2nc(C)n(CC#Cc3ccc(Cl)cc3-c3ccnc4c(C(=O)NS(=O)(=O)CC)csc34)c(=O)c2c1C#N)C1CCN(C2COC2)CC1 [compound 1733]
39 | 12.6 | CCN(c1ncc2nc(C)n(CC#Cc3ccc(Cl)cc3-c3ccnc4c(C(=O)NS(=O)(=O)CCC#N)csc34)c(=O)c2c1C#N)C1CCN(C2COC2)CC1 [compound 1736]
40 | 14.3 | CCN(c1ncc2nc(C)n(CC#Cc3ccc(Cl)cc3-c3ccnc4c(C(=O)NS(=O)(=O)CC(C)(C)C#N)csc34)c(=O)c2c1C#N)C1CCN(C2COC2)CC1 [compound 1737]
41 | 12.6 | CCN(c1ncc2nc(C)n(CC#Cc3ccc(Cl)cc3-c3ccnc4c(C(=O)NS(=O)(=O)c5ccncc5)csc34)c(=O)c2c1C#N)C1CCN(C2COC2)CC1 [compound 1740]
42 | 11 | CCN(c1ncc2nc(C)n(CC#Cc3ccc(Cl)cc3-c3ccnc4c(C(=O)NS(=O)(=O)c5cccnc5)csc34)c(=O)c2c1C#N)C1CCN(C2COC2)CC1 [compound 1741]
43 | 5.43 | CCN(c1ncc2nc(C)n(CC#Cc3ccc(Cl)cc3-c3ccnc4c(C(=O)NS(=O)(=O)c5ccccn5)csc34)c(=O)c2c1C#N)C1CCN(C2COC2)CC1 [compound 1742]
44 | 11.5 | CCN(c1ncc2nc(C)n(CC#Cc3ccc(Cl)cc3-c3ccnc4c(C(=O)NS(=O)(=O)C(F)(F)F)csc34)c(=O)c2c1C#N)C1CCN(C2COC2)CC1 [compound 1744]
45 | 11 | CCN(c1ncc2nc(C)n(CC#Cc3ccc(Cl)cc3-c3ccnc4c(C(=O)NS(=O)(=O)CC(F)F)csc34)c(=O)c2c1C#N)C1CCN(C2COC2)CC1 [compound 1745]
46 | 10.8 | CCN(c1ncc2nc(C)n(CC#Cc3ccc(Cl)cc3-c3ccnc4c(C(=O)NS(=O)(=O)C(C)C)csc34)c(=O)c2c1C#N)C1CCN(C2COC2)CC1 [compound 1746]
47 | 5.65 | Cc1nc2cnc(N(C)C3CCN([C@H]4C[C@H](OC(F)F)C4)CC3)c(C#N)c2c(=O)n1CC#Cc1ccc(Cl)cc1-c1ccnc2c(C(=O)NS(C)(=O)=O)csc12 [compound 1761]
48 | 12.3 | Cc1nc2cnc(N(C)C3CCN([C@H]4C[C@H](OC(F)F)C4)CC3)c(C#N)c2c(=O)n1CC#Cc1ccc(Cl)cc1-c1ccnc2c(C(=O)NS(=O)(=O)c3cccnc3)csc12 [compound 1765]
